Experimental data published in PubChem BioAssay AID248 (DTP/NCI, 2004).
Toxic doses and inconclusive results are not listed. No stated cut-off is given here; in the data, active means T/C of 150% or more; inactive means T/C below 125%.

System: L1210 leukemia ip in BDF1 mice, survival T/C
Experiment: NCI In Vivo Anticancer Drug Screen. Data for tumor model L1210 Leukemia (intraperitoneal) in B6D2F1 (BDF1) mice
Conditions: endpoint: mean survival time, higher = longer survival
Outline: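 Transplanted-tumor mice were given test agent; controls received vehicle only. Survival readings from the two groups were divided (treated over control).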

[1] = dose: 50.0 mg/kg/injection, schedule: Q01DX009 (ip), vehicle: saline with Tween-80
[2] = dose: 100.0 mg/kg/injection, schedule: Q04DX003 (ip), vehicle: saline
[3] = dose: 200.0 mg/kg/injection, schedule: Q04DX003 (ip), vehicle: saline
[4] = dose: 100.0 mg/kg/injection, schedule: Q04DX003 (ip), vehicle: saline with Tween-80

Measured: T/C

Clc1ccc(C#CP(C#Cc2ccc(Cl)cc2)C#Cc2ccc(Cl)cc2)cc1
inactive: [1] 88 % of control | dose: 100.0 mg/kg/injection, schedule: Q01DX009 (ip), vehicle: saline with Tween-80 103 % of control

CC1(C2CC2)NC(=O)NC1=O (stereo not drawn)
inactive: dose: 100.0 mg/kg/injection, schedule: Q01DX009 (ip), vehicle: saline 97 % of control | [2] 92 % of control | dose: 200.0 mg/kg/injection, schedule: Q01DX009 (ip), vehicle: saline 89 % of control | [3] 97 % of control | dose: 400.0 mg/kg/injection, schedule: Q01DX009 (ip), vehicle: saline 95 % of control | dose: 400.0 mg/kg/injection, schedule: Q04DX003 (ip), vehicle: saline 95 % of control

O=S(=O)(Nc1ccccn1)c1ccccc1
inactive: dose: 200.0 mg/kg/injection, schedule: Q01DX009 (ip), vehicle: Klucel (hydroxypropylcellulose) (HPC) 103 % of control | dose: 400.0 mg/kg/injection, schedule: Q01DX009 (ip), vehicle: Klucel (hydroxypropylcellulose) (HPC) 98 % of control

Cc1cccc([N+](=O)[O-])n1
inactive: dose: 25.0 mg/kg/injection, schedule: Q01DX009 (ip), vehicle: saline with Tween-80 94 % of control | [1] 94 % of control | [4] 89 % of control

CN(C)c1ccc(N2C(=O)C=CC2=O)cc1
inactive: dose: 6.25 mg/kg/injection, schedule: Q01DX001 (ip), vehicle: saline with Tween-80 104 % of control | dose: 12.5 mg/kg/injection, schedule: Q01DX001 (ip), vehicle: saline with Tween-80 105 % of control

CC(=O)/C(=C/c1ccccc1)N=P(c1ccccc1)(c1ccccc1)c1ccccc1
inactive: dose: 50.0 mg/kg/injection, schedule: Q04DX003 (ip), vehicle: saline 90 % of control | dose: 100.0 mg/kg/injection, schedule: Q01DX001 (ip), vehicle: saline 87 % of control | [2] 92 % of control | dose: 200.0 mg/kg/injection, schedule: Q01DX001 (ip), vehicle: saline 89 % of control | [3] 90 % of control

CC(=O)Cc1nc(N)nc(Nc2ccc(Cl)c(Cl)c2)n1
inactive: [4] 91 % of control | dose: 200.0 mg/kg/injection, schedule: Q04DX003 (ip), vehicle: saline with Tween-80 96 % of control | dose: 400.0 mg/kg/injection, schedule: Q04DX003 (ip), vehicle: saline with Tween-80 96 % of control
